We go through 8 molecules from US20160251367A1, “SYNTHESIS OF TRITOQUALINE SALTS” (Chrysalis Pharma, priority 2014, published 2016).

In brackets after ≈: the same amount, converted by molar mass. Where two headings read alike, the source gives them in different places.

The nature of this data set: physchem. The format is physicochemical. The text has this: The dissolution tests show a very substantial and surprising increase in tritoqualine.

With `CCOc1c(N)c2c(c(OCC)c1OCC)C(C1c3c(cc4c(c3OC)OCO4)CCN1C)OC2=O.O=P(O)(O)O` (centres unmarked) [Tritoqualine phosphate, tritoqualine phosphate], the “increase of the initial solubility of tritoqualine in water” value (“increase” for short) is recorded as 31 000 times.

As to `CCOc1c(N)c2c(c(OCC)c1OCC)C(C1c3c(cc4c(c3OC)OCO4)CCN1C)OC2=O.O=C(O)C=CC(=O)O` (centres unmarked) [Tritoqualine fumarate, tritoqualine fumarate], the “increase” value was 15 000 times.

Consider `CC1(C)C2CCC1(CS(=O)(=O)O)C(=O)C2.CCOc1c(N)c2c(c(OCC)c1OCC)C(C1c3c(cc4c(c3OC)OCO4)CCN1C)OC2=O` (centres unmarked) [Tritoqualine camphorsulfonate, tritoqualine camphorsulfonate], for which the “increase” value was 11 000 times.

With `CC(=O)O.CCOc1c(N)c2c(c(OCC)c1OCC)C(C1c3c(cc4c(c3OC)OCO4)CCN1C)OC2=O` (centres unmarked) [Tritoqualine acetate, tritoqualine acetate], the “increase” value turned out to be 1500 times and the solubility came to 0.75 M/L.

`CCOc1c(N)c2c(c(OCC)c1OCC)C(C1c3c(cc4c(c3OC)OCO4)CCN1C)OC2=O.Cl` (centres unmarked) [Tritoqualine hydrochloride, tritoqualine hydrochloride]: the “increase” value is 500 times and the solubility is listed as 0.25 M/L.

Turning to tritoqualine sulfate, the “increase” value came out at 2500 times and the solubility amounted to 1.25 M/L.

As for `CCOc1c(N)c2c(c(OCC)c1OCC)C(C1c3c(cc4c(c3OC)OCO4)CCN1C)OC2=O` (racemic) [tritoqualine, 7-Amino-4,5,6-triethoxy-3-(5,6,7,8-tetrahydro-4-methoxy-6-methyl-1,3-dioxolo[4,5-g]isoquinolin-5-yl) phthalide], the solubility (water) came to 500 µM (≈ 250 µg/mL).

Consider `CCOc1c(N)c2c(c(OCC)c1OCC)C(C1c3c(cc4c(c3OC)OCO4)CCN1C)OC2=O.CS(=O)(=O)O` (centres unmarked) [Tritoqualine methylsulfonate, tritoqualine methylsulfonate], for which the “increase” value is given as 50 000 times.
